# Measured values from patent US20150125589A1, “TASTE-IMPROVING AGENT AND FOOD OR DRINK CONTAINING SAME” (NIPPON SUISAN KAISHA, LTD., priority 2011, published 2015).
# Legend:
# [1] = Evaluation method 2: quantitating improvement of unpleasant flavor of potassium chloride as K/Na ratio against standard solutions, chicken stock soup; details: for improvement effect against the unpleasant flavor of potassium chloride: glycoside or aglycone 25 ppm final in standard solution 8, FIG. 17
# Experimental: 1.32 g of Chinese soup stock granules (product name=“Marudori-gara Soup”, manufactured by Ajinomoto K.K., standard nutritional ingredients of 2.5 g of Chinese soup stock granules are shown in Table 1) was dissolved in 70 g of distilled water, and the mixture was filtered through filter paper (filter paper no. 2, manufactured by Advantec Toyo K.K.). Thereafter, 0.63 g of NaCl was added, and water was further added to obtain 100 g of chicken stock soup containing an equivalent of 1.26 percent table salt (Table 2, standard solution 1). The concentration of sodium chloride was decreased in a stepwise manner from the composition of the standard solution 1, and potassium chloride was added to produce multiple chicken stock soups (Table 2, standard solutions 2 to 8). The ratio of potassium chloride to sodium chloride ((potassium chloride concentration/sodium chloride concentration)×100(%), referred to hereinafter as “K/Na ratio”) was changed in standard solutions 1 to 8, and the intensity of the unpleasant flavor (i.e. bitterness, astringent taste, harsh taste, and bitter taste) characteristic of potassium chloride increased as the K/Na ratio value increased. The unpleasant flavor intensity increased in a stepwise manner for standard solutions 1 to 8. Intensity of this unpleasant flavor and detailed taste were evaluated by organoleptic evaluation by an expert panel, and results of evaluation were classified in three stages, i.e. initial taste, middle taste, and aftertaste.
# A desired concentration of test solution was added to one of the standard solutions of Table 2 to produce an evaluation solution. At this time, for a test sample containing sodium chloride or potassium chloride, the evaluation solution was adjusted such that the total sodium chloride concentration or total potassium chloride concentration of the evaluation solution was equivalent to the respective standard solution. The standard solutions 1 to 8 of Table 2 are indicated in order of potassium chloride concentration. These evaluation solutions were compared to the standard solution, and the corresponding unpleasant flavor of potassium chloride was expressed as a K/Na ratio. The improvement effect was indicated as higher as the ratio of K/Na ratio obtained by evaluation to actual K/Na ratio decreased.
# [2] = Evaluation method 1: expert panel ranking of potassium chloride unpleasant flavor intensity (normalized rank method), chicken stock soup; details: for effect of phospholipid for improvement of unpleasant flavor of potassium chloride: phospholipid 0.02 percent in standard solution 8, FIG. 21
# [3] = Unpleasant taste distinguishable concentration of potassium chloride, blind ranking by panel; details: chicken stock soup models, panel n=11; FIG. 28
# Experimental: 1.32 g of Chinese soup stock granules (product name=“Marudori-gara Soup”, manufactured by Ajinomoto K.K., standard nutritional ingredients of 2.5 g of Chinese soup stock granules are shown in Table 1) was dissolved in 70 g of distilled water, and the mixture was filtered through filter paper (filter paper no. 2, manufactured by Advantec Toyo K.K.). Thereafter, 0.63 g of NaCl was added, and water was further added to obtain 100 g of chicken stock soup containing an equivalent of 1.26 percent table salt (Table 2, standard solution 1). The concentration of sodium chloride was decreased in a stepwise manner from the composition of the standard solution 1, and potassium chloride was added to produce multiple chicken stock soups (Table 2, standard solutions 2 to 8). […] Intensity of this unpleasant flavor and detailed taste were evaluated by organoleptic evaluation by an expert panel, and results of evaluation were classified in three stages, i.e. initial taste, middle taste, and aftertaste.
# Standard solutions 1 to 7 (with the exception of standard solution 2) were evaluated by a panel (n=11) by blind-testing to determine the order of potassium chloride unpleasant flavor intensity.
Molecule,improvement effect against the unpleasant flavor of potassium chloride [1],effect of phospholipid for improvement of unpleasant flavor of potassium chloride [2],also measured
"O=c1cc(-c2ccc(O)cc2)oc2cc(O[C@@H]3O[C@H](CO)[C@@H](O)[C@H](O)[C@H]3O[C@@H]3OC[C@](O)(CO)[C@H]3O)cc(O)c12 [fraction 13, apiin]",particularly high effect,,"added amount at which near maximum unpleasant flavor improvement effect was reached ([1]; 25, 50, 125, 250 ppm in standard solution 8, FIG. 16): ≥ 125 ppm; unpleasant flavor improvement effect of parsley extract fraction relative to its parent solution ([2]; fraction aqueous solution added at 15 percent by weight to standard solution 8, FIG. 12-15): equivalent to that of the evaluation solution 9"
"O=c1cc(-c2ccc(O)cc2)oc2cc(O[C@@H]3O[C@H](CO)[C@@H](O)[C@H](O)[C@H]3O)cc(O)c12 [apigenin 7-glucoside, Apigenin 7-glucoside]",high effect,,
Phosphatidylinositol [PI],,high effects,
"C[C@@H]1O[C@@H](O[C@H]2[C@H](Oc3cc(O)c4c(c3)O[C@H](c3ccc(O)cc3)CC4=O)O[C@H](CO)[C@@H](O)[C@@H]2O)[C@H](O)[C@H](O)[C@H]1O [naringin, Naringin, reference compound]",improvement effect was not found,,
"Phosphatidic acid [PA, reference compound]",,low,
"O=c1c(-c2ccc(O)cc2)coc2cc(O[C@@H]3O[C@H](CO)[C@@H](O)[C@H](O)[C@H]3O)ccc12 [daidzin, Daidzin]",high effect,,
Phosphatidylethanolamine [PE],,high effects,
[Cl-].[K+] [potassium chloride],,,K/Na ratio at which unpleasant flavor of potassium chloride was not generally recognized [3]: less than or equal to 57%
Phosphatidylserine [PS],,high effects,
Phosphatidylcholine [PC],,high effects,
"O=c1cc(-c2ccc(O)cc2)oc2cc(O)cc(O)c12 [apigenin, Apigenin]",high effect,,
